Here are results for five compounds from patent US5043273A, “Phosphorylated glycosidase inhibitor prodrugs” (Monsanto Company, priority 1989, dated 1991).

For series [1], the target named is T1, Porcine Microsomal Alpha-Glucosidase I (Sus scrofa, UniProt K7N7E7).
T1 construct: Alpha-glucosidase I was isolated from porcine liver microsomes; from tissue; host or cells: porcine liver microsomes
T1 sequence (K7N7E7 1-839): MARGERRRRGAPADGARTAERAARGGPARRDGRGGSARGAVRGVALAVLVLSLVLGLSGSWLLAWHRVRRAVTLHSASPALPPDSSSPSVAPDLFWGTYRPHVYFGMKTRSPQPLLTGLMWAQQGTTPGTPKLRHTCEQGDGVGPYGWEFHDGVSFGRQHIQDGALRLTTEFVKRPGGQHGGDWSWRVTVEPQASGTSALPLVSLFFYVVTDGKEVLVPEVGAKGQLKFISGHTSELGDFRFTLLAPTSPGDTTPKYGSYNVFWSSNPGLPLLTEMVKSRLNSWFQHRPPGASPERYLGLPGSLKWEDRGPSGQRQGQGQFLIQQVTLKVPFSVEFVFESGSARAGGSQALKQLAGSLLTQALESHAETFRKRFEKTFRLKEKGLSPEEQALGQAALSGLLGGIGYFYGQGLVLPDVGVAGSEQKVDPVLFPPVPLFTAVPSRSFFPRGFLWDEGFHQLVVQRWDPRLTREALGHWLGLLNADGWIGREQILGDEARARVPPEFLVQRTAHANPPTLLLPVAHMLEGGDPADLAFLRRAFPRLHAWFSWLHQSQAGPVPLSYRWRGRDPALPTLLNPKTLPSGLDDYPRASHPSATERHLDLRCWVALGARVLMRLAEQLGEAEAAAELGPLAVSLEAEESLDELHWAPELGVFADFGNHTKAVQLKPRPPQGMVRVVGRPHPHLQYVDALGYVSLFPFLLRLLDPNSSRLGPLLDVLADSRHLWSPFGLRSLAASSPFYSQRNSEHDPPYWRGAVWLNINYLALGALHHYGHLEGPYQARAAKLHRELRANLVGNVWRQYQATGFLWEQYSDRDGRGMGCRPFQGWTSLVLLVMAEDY
The series can be described thus: Inhibition constants against porcine microsomal alpha-glucosidase I. In kind it is biochemical. The protocol: Porcine Microsomal Alpha-Glucosidase I. Alpha-glucosidase I was isolated from porcine liver microsomes by an affinity chromatographic method similar to that described by Hettkamp et.al., Eur J. Biochem. 142, 85-90 (1981).
Inhibition constants for the various DNJ derivatives and castanospermine were determined assuming competitive inhibition and were derived from the initial rates for the hydrolysis of [^14 C-Glc]Glc3 Man9 GlcNAc2 (at a concentration of 0.044 μM), at pH7.0 and 37° C. in the presence and absence of several fixed concentrations of each inhibitor.

The target in series [2] is T2, Porcine Intestinal Sucrase (Sus scrofa, UniProt P56729).
T2 construct: both chains cut from one SI precursor
T2 sequence (P56729 with tags, fused parts or gaps): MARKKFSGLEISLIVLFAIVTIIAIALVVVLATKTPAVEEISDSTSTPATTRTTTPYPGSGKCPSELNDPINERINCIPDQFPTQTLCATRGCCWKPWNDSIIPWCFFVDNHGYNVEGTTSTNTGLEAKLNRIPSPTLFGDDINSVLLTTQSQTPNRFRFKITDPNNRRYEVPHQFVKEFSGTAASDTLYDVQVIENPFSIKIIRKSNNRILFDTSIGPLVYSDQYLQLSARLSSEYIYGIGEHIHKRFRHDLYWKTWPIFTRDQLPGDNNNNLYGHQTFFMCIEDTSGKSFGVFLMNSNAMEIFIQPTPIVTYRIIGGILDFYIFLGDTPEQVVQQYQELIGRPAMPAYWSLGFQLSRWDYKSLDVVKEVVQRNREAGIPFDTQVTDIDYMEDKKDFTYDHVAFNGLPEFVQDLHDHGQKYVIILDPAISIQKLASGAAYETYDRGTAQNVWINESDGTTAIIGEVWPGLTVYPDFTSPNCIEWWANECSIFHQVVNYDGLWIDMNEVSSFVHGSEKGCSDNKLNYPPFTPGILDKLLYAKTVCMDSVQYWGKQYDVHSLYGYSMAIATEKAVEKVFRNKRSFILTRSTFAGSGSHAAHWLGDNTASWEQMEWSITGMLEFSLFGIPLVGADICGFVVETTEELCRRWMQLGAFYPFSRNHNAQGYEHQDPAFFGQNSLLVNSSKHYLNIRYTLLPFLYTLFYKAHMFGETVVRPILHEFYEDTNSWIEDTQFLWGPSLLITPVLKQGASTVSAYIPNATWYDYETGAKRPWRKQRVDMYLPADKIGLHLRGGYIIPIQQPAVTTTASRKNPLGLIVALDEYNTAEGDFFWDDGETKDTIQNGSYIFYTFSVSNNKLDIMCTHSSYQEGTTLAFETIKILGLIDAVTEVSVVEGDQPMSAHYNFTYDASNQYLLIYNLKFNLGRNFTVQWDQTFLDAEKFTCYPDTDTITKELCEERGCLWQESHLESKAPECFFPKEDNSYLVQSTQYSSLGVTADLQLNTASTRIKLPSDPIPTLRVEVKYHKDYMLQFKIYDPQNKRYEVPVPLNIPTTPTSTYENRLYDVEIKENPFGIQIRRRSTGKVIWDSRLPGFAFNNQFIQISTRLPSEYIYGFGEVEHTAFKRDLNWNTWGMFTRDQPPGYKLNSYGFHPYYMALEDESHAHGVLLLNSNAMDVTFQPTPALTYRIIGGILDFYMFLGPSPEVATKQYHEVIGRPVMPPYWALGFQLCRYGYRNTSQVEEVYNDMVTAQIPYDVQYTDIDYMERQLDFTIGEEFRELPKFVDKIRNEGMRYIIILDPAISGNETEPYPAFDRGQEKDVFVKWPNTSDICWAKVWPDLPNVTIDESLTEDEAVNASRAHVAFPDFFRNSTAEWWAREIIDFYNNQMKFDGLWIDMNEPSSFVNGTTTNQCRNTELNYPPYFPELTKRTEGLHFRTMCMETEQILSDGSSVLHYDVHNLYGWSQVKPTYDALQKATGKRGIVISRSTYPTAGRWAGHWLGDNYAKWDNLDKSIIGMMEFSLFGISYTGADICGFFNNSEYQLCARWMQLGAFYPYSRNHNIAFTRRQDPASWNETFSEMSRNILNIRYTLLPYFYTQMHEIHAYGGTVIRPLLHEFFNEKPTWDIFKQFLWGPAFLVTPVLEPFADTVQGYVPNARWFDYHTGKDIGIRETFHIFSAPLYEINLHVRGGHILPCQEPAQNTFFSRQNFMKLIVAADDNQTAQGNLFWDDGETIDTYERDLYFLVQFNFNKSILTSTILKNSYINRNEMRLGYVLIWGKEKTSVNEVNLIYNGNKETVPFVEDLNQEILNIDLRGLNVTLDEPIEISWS
Kind of series: Inhibition constants against porcine intestinal sucrase. In kind it is biochemical. As for the experimental part:
(§1) Porcine Intestinal Sucrase and Maltase. A sucrase-isomaltase complex was extracted from pig small intestine by treatment with urea and then solubilized by digestion with papain. The enzyme-complex was recovered by ethanol precipitation and then further purified by cellulose DE-52 anion exchange chromatography. The activity of sucrase was assayed by incubating an appropriate amount of enzyme at 37° C. in a final volume of 150 μ1 containing 25 mM sodium citrate buffer, pH 6.0, and 30 mM sucrose as substrate. After 30 min. the enzyme was inactivated by heating at 100° C. for 3 min, the reaction mixture centrifuged at 15000×g for 15 min and a 50 µl aliquot of the supernatant removed and the enzymereleased glucose determined by the glucose oxidase-peroxidase method described by Trinder, Ann. Clin. Biochem. 6, 24 (1969). Under the standard assay conditions, the release of glucose was linear up to 10% hydrolysis of the substrate. […] Maltase activity associated with the sucrase-isomaltase complex [Kolinska and Semenze, Biochim. Biophys. Acta 146, 181 (1967)] was assayed in a manner similar to sucrase except that the substrate was 30 mM maltose. Under the standard assay conditions release of glucose was linear up to 8% hydrolysis of the substrate. The specific activity of maltase was 15.2 units/mg protein.
Inhibition constants for the various DNJ derivatives and castanospermine were determined from Lineweaver-Burk plots of the enzyme-catalyzed reaction in the presence and absence of different fixed concentrations of each inhibitor. Incubations using sucrase were for 30 min at a concentration of 90 milliunits/ml and for maltase were for 12 min at a concentration of 80 milliunits/ml.

The target in series [3] is T3, Porcine Intestinal Maltase (Sus scrofa, UniProt P56729).
T3 construct: both chains cut from one SI precursor
T3 sequence (P56729 with tags, fused parts or gaps): as above
Kind of series: Inhibition constants against porcine intestinal maltase. In kind it is biochemical. The protocol: as §1, with “Under the standard assay conditions release of glucose was linear up to 8% hydrolysis of the substrate. The specific activity of maltase was 15.2 units/mg protein.” left out
Inhibition constants for the various DNJ derivatives and castanospermine were determined from Lineweaver-Burk plots of the enzyme-catalyzed reaction in the presence and absence of different fixed concentrations of each inhibitor. […]

In series [4] the test system is human immunodeficiency virus (HIV). To be noted: at noncytotoxic concentrations; cited from earlier work.
Series [5] deals with bovine intestinal alkaline phosphatase. Kind of series: Dephosphorylation by alkaline phosphatase (biolability of the phosphate group). In kind it is in vitro ADME. To be noted: 1 mM compound, 130 U/ml enzyme, 37° C., pH 9.5, 16 h, assayed by HPAEC. As for the experimental part:
N-Butyldeoxynojirimycin-6-phosphate (1 mM) was incubated with bovine intestinal alkaline phosphatase (Sigma Type VII, 130 U/ml) at 37° C. n 0.1 m Na2 Co3 /NaHCO3 buffer, pH 9.5.

The mark [6] stands for this setting: porcine liver microsomes, substrate [14C-Glc]Glc3Man9GlcNAc2 0.044 μM, pH 7.0, 37° C., competitive inhibition assumed, read-out: Ki Microsomal α-Glucosidase I.
Where [7] appears, read: pig small intestine, 30 mM sucrose, pH 6.0, 37° C., 30 min, Lineweaver-Burk plots, read-out: Ki Intestinal Sucrase.

Like-named read-outs stand apart in the source and are kept apart here.

The Ki is a measure of affinity in units of concentration, obtained from inhibition or displacement. For the compound `O[C@H]1[C@H](O)[C@@H](O)CN2CC[C@H](O)[C@H]12` [Castanospermine, castanospermine], the Ki stood at 0.04 µM in series [1] (setting [6]) and 0.064 µM in series [2] (setting [7]).
Turning to `OC[C@H]1NC[C@H](O)[C@@H](O)[C@@H]1O` [DNJ, deoxynojirimycin], the Ki in series [1] came to 0.83 µM; in series [2], 0.05 µM.
Regarding `O=P(O)(O)OC[C@H]1NC[C@H](O)[C@@H](O)[C@@H]1O` [DNJ-6-P, deoxynojirimycin-6-phosphate], the Ki in series [1] (setting [6]) worked out at 6600 µM; in series [2] (setting [7]), 520 µM.
With `CCCCN1C[C@H](O)[C@@H](O)[C@H](O)[C@H]1CO` [N-BuDNJ, N-butyldeoxynojirimycin], the Ki in series [1] was found to be 0.22 µM. Further, in series [2], the “Inhibition of sucrase (in words)” value is on record as “potent inhibitor” and the inhibition constant Ki worked out at 0.18 µM. Further, the “Inhibition of maltase (in words)” value in series [3] was “potent inhibitor”. The “Reduction of virus titer” value in series [4] is listed as “greater than five logarithms”.
For `CCCCN1C[C@H](O)[C@@H](O)[C@H](O)[C@H]1COP(=O)(O)O` [N-BuDNJ-6-P, N-butyldeoxynojirimycin-6-phosphate], the “Inhibition of α-glucosidase I (in words)” value in series [1] is given as “very weak inhibitor”. Besides, the figures for the inhibition constant (Ki) in series [1] (setting [6]) and in series [2] (setting [7]) were 4000 µM and 1500 µM, respectively. Besides, the “Inhibition of sucrase (in words)” value in series [2] is on record as “very weak inhibitor”. Moreover, the “Inhibition of maltase (in words)” value in series [3] is “very weak inhibitor”. The results for the “Dephosphorylation by alkaline phosphatase” value in series [5] (listed as N-Butyldeoxynojirimycin-6-phosphate) and in series [5] (listed as N-butyl-deoxynojirimycin-6-phosphate) were “completely dephosphorylated” and “completely dephosphorylted”, respectively.
